Assay results from paper PMC7126984 (International Journal of Antimicrobial Agents, 2008).
Converted amounts (≈) assume the structure as drawn.

Experiments:
[1] = tested on: IFNα expression; assay: ELISA for detection of IFNα expression in TE-671 cells; format: cell-based, human; settings: 48 h incubation
[2] = tested on: interferon-stimulated response element (ISRE) promoter; assay: Dual-luciferase cis-reporter assay pISRE-Luc in HL-CZ cells; format: cell-based, human; settings: 1 μg/mL, 4 h, normalised by Renilla luciferase, vs untreated cells
[3] = tested on: gamma-activated sequence (GAS) promoter; assay: Dual-luciferase cis-reporter assay pGAS-Luc in HL-CZ cells; format: cell-based, human; settings: 1 μg/mL, 4 h, normalised by Renilla luciferase, vs untreated cells
[4] = tested on: human protein kinase R (PKR) mRNA; assay: Real-time RT-PCR of PKR mRNA in HL-CZ cells; format: cell-based; settings: 1 μg/mL, normalised to GAPDH, vs untreated cells
[5] = tested on: 2′,5′-oligoadenylate synthetase (OAS) mRNA; assay: Real-time RT-PCR of OAS mRNA in HL-CZ cells; format: cell-based, human; settings: 1 μg/mL, normalised to GAPDH, vs untreated cells
[6] = tested on: nitric oxide (NO) production; assay: NO production by DAF-2 DA fluorescence in HL-CZ cells; format: cell-based, human; settings: compared with the control and shikonin
[7] = tested on: rhinovirus; settings: cited from earlier work
[8] = MTT cytotoxicity test in HL-CZ cells; settings: human, HL-CZ promonocyte cells
[9] = MTT cytotoxicity test in TE-671 cells; settings: human, TE-671 medulloblastoma cells
[10] = tested on: Japanese encephalitis virus (JEV) strain T1P1; assay: Plaque reduction assay, JEV in HL-CZ cells; settings: for TI (ratio of CC50 to IC50): JEV, HL-CZ cells; for IC50: Japanese encephalitis virus, 48 h
[11] = tested on: Japanese encephalitis virus (JEV) strain T1P1; assay: Plaque reduction assay, JEV in TE-671 cells; settings: for TI (ratio of CC50 to IC50): JEV, TE-671 cells; for IC50: Japanese encephalitis virus; for inhibition of JEV replication in cell culture assay: dose-dependent plaque reduction assay
[12] = tested on: enterovirus 71 (EV71); assay: Plaque reduction assay, EV71 in HL-CZ cells
[13] = tested on: enterovirus 71 (EV71); assay: Plaque reduction assay, EV71 in TE-671 cells; settings: for IC50: Enterovirus A
[14] = tested on: TE-671 medulloblastoma cells; assay: MTT cytotoxicity test in TE-671 cells; settings: TE-671 cells, 48 h treatment, MTT assay
[15] = 1 μg/mL, TE-671 and HL-CZ cells, 12, 24 and 48 h

SMILES | level of IFNα expression, dose dependence [1] | increase of promoter activity of pISRE-Luc [2] | increase of promoter activity of pGAS-Luc [3] | increase of PKR mRNA [4] | increase of OAS mRNA [5] | NO production (DAF signal) [6] | CC50 at 48 h [8] | CC50 at 48 h [9] | TI (ratio of CC50 to IC50) [10] | IC50 [10] | TI (ratio of CC50 to IC50) [11] | IC50 ([11]; TE-671, 48 h) | inhibition of JEV replication in cell culture assay [11] | other results
O=C1c2cccc(O)c2C(=O)c2c(O)cc(CO)cc21 [Aloe-emodin, 1,8-dihydroxy-3-hydroxymethyl-anthraquinone] | dose-dependent increase | ca. 2.14 fold | ~2.03 fold | 1294.4 fold | 8.6 fold | greater DAF signal | 2880 µg/mL (≈ 10700 µM) | 2630 µg/mL (≈ 9740 µM) | 5762 | 0.5 ± 0.02 µg/mL (≈ 1.85 µM) | 1743 | 1.51 ± 0.05 µg/mL (≈ 5.59 µM) | dose-dependent inhibition | increase in IFNα expression [1]: 2.5 fold; antiviral effect on the replication of rhinovirus [7]: no antiviral effect; time-dependent inhibition of JEV replication [11, 15]: significantly inhibited; IC50 ([11]; TE-671, read-out: IC50 for JEV): 0.5 to 1.51 µg/mL (≈ 1.85 to 5.59 µM); therapeutic index (TI) for anti-JEV activity ([11]; over TE-671 and HL-CZ cells): > 1500; TI (ratio of CC50 to IC50) ([12]; EV71, HL-CZ cells): 5540; IC50 ([12]; Enterovirus A, EV71, 48 h): 0.52 ± 0.03 µg/mL (≈ 1.92 µM); time-dependent inhibition of EV71 replication [13, 15]: significantly inhibited; TI (ratio of CC50 to IC50) ([13]; EV71, TE-671 cells): 18 800; IC50 ([13]; EV71, TE-671, 48 h): 0.14 ± 0.04 µg/mL (≈ 0.518 µM); IC50 ([13]; EV71, TE-671, read-out: IC50 for EV71): 0.14 to 0.52 µg/mL (≈ 0.518 to 1.92 µM); therapeutic index (TI) for anti-EV71 activity ([13]; over TE-671 and HL-CZ cells): > 5000
COC(=O)C1=CCCN(C)C1 [Arecoline, arecoline] | dose-dependent increase | – | 1.8 fold | – | – | greater DAF signal | > 3000 µg/mL | > 3000 µg/mL | >285.7 | 10.5 ± 0.3 µg/mL (≈ 67.7 µM) | >92.3 | 32.5 ± 0.4 µg/mL (≈ 209 µM) | dose-dependent inhibition | –
O.Oc1cc(O)c2c(c1)O[C@H](c1ccc(O)c(O)c1)[C@@H](O)C2 [Catechin, catechin] | – | – | – | – | – | – | – | – | – | – | – | – | – | CC50 [14]: >3000 µg/mL
COc1ccc([C@@H]2CC(=O)c3c(O)cc(O)cc3O2)cc1O [Hesperetin, hesperetin] | – | – | – | – | – | – | – | 574 µg/mL (≈ 1900 µM) | – | – | 159 | 3.6 ± 0.5 µg/mL (≈ 11.9 µM) | – | –
CC(C)=CC[C@@H](O)C1=CC(=O)c2c(O)ccc(O)c2C1=O [Shikonin, shikonin] | dose-dependent increase | ca. 1.2 fold | – | 1087 fold | 5 fold | – | > 3000 µg/mL | 1750 µg/mL (≈ 6080 µM) | >2500 | 1.2 ± 0.2 µg/mL (≈ 4.16 µM) | 835.2 | 2.1 ± 0.5 µg/mL (≈ 7.28 µM) | dose-dependent inhibition | –
